Source: patent US20040102387A1 (priority 2002, published 2004)

Molecular target: Botulinum neurotoxin type A (Clostridium botulinum, UniProt P0DPI0)
Type: cell-based

Chain of Botulinum neurotoxin type A (P0DPI0 whole entry, looked up): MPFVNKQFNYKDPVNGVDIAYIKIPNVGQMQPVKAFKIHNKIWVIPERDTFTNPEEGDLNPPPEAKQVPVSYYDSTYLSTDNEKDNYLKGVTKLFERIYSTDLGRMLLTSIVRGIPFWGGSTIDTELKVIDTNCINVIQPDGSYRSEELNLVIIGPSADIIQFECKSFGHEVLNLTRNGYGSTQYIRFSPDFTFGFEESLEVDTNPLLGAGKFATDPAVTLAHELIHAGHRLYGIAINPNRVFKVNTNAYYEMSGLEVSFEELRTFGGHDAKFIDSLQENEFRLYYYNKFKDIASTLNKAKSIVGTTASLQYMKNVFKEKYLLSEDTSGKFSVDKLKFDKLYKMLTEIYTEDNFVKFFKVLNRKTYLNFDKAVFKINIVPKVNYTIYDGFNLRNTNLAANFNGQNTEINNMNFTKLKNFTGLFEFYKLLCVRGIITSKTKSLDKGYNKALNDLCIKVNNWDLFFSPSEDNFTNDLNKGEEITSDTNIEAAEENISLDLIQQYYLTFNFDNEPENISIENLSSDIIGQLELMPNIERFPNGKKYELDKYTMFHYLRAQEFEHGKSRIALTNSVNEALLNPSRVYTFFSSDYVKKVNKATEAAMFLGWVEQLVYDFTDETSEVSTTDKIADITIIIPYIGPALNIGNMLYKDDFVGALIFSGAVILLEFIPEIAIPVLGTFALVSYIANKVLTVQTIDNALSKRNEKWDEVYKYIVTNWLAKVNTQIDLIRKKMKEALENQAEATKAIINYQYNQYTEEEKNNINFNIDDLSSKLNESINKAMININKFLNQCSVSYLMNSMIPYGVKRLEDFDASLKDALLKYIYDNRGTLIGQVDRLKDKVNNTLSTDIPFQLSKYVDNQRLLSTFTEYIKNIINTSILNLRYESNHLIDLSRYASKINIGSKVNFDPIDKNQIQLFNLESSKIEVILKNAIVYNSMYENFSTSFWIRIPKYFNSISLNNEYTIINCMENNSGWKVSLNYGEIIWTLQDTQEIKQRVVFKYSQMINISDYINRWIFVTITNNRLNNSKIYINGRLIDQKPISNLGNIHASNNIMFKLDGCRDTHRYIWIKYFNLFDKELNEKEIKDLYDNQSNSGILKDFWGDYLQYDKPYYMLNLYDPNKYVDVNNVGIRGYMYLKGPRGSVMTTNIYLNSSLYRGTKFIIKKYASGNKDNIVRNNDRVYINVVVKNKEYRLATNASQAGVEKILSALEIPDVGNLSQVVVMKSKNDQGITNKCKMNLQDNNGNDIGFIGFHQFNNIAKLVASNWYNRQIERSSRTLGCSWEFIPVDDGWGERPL

Compound	neurotoxin-neutralizing activity (neuromuscular contractility, FIG. 2)
C[C@@H]1O[C@@H](OC[C@H]2O[C@@H](Oc3c(-c4ccc(O)c(O)c4)oc4cc(O)cc(O)c4c3=O)[C@H](O)[C@@H](O)[C@@H]2O)[C@H](O)[C@H](O)[C@H]1O [first component, rutin]	high toxin-neutralizing activities
C[C@@H]1O[C@@H](OC[C@H]2O[C@@H](Oc3c(-c4ccc(O)cc4)oc4cc(O)cc(O)c4c3=O)[C@H](O)[C@@H](O)[C@@H]2O)[C@H](O)[C@H](O)[C@H]1O [fourth component, nicotiflorin]	high toxin-neutralizing activities
kaempferol-3-(O-glc-rha)-4′-O-rha [second component]	high toxin-neutralizing activities
kaempferol-3-O-glc-(6-1)-rha-(3-1)-glc [third component]	high toxin-neutralizing activities
